Structures can show the parent of a compound that is named as a salt.
Assays:
factor VIIa = target: T1, factor VIIa (Homo sapiens, UniProt P08709); test: Inhibition of factor VIIa; type: biochemical
T1 sequence (P08709 213-466 limits assumed): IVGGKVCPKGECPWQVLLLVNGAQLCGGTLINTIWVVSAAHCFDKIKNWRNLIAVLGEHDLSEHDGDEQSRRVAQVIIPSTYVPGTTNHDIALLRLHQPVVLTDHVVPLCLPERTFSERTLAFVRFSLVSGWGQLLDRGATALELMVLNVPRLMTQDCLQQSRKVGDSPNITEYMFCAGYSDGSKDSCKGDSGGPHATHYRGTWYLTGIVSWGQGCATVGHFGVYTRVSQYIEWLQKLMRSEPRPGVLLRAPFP
T1 sequence (P08709 61-212 partner limits assumed): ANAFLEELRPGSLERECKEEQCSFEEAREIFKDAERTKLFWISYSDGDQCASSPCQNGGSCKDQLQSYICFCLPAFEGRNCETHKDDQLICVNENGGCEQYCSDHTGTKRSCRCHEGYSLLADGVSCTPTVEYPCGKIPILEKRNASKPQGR
Text: Coagulation factor VIIa initiates the extrinsic part of the coagulation cascade after binding to tissue factor and contributes to the activation of factor X to give factor Xa. Inhibition of factor VIIa thus prevents the formation of factor Xa and thus subsequent thrombin formation. The inhibition of factor VIIa by the compounds according to the invention and the measurement of the anticoagulant and antithrombotic activity can be determined by conventional in-vitro or in-vivo methods. A conventional method for the measurement of the inhibition of factor VIIa is described, for example, by H. F. Ronning et al. in Thrombosis Research 1996, 84, 73-81.

factor Xa = factor Xa (Homo sapiens, UniProt P00742); test: Inhibition of factor Xa; type: biochemical
factor Xa, sequence (P00742 235-488 limits assumed): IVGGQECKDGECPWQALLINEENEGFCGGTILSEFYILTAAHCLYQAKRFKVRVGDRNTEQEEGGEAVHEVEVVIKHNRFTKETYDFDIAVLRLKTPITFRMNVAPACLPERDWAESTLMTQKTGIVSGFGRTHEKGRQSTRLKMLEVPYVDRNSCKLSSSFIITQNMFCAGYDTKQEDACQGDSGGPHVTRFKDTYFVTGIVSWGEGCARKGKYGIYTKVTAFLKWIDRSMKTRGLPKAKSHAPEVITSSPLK
factor Xa, sequence (P00742 41-179 partner limits assumed): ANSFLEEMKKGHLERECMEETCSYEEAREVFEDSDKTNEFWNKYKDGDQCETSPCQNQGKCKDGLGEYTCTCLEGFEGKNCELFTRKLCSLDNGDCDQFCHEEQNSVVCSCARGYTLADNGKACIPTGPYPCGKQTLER
Text: The inhibition of factor Xa by the compounds according to the invention and the measurement of the anticoagulant and antithrombotic activity can be determined by conventional in-vitro or in-vivo methods. A suitable method is described, for example, by J. Hauptmann et al. in Thrombosis and Haemostasis 1990, 63, 220-223.
The inhibition of factor Xa can be measured, for example, by the method of T. Hara et al. in Thromb. Haemostas. 1994, 71, 314-319.

Compound: CS(=O)(=O)c1ccccc1-c1ccc(OC(C(=O)Nc2cccc(C(=N)N)c2)c2ccccc2)cc1 (stereo not drawn) [Example 1, N-(3-amidinophenyl)-2-(2′-methanesulfonylbiphenyl-4-oxyl)-2-phenylacetamide]
- IC50 (factor VIIa): 46 nM
- IC50 (factor Xa): 110 nM

Compound: CC(C)(C)NS(=O)(=O)c1ccccc1-c1ccc(NC(C(=O)Nc2cccc(C(=N)N)c2)c2ccccc2)cc1 (stereo not drawn) [Example 5.5, N-(3-amidinophenyl)-2-(2′-tert-butylaminosulfonylbiphenyl-4-amino)-2-phenylacetamide]
- IC50 (factor VIIa): 550 nM
- IC50 (factor Xa): 140 nM

Compound: N=C(N)c1cccc(NC(=O)C(Nc2ccc(-c3ccccc3S(N)(=O)=O)cc2)c2ccccc2)c1 (stereo not drawn) [Example 5.6, N-(3-amidinophenyl)-2-(2′-aminosulfonylbiphenyl-4-amino)-2-phenylacetamide, trifluoroacetate]
- IC50 (factor VIIa): 13 nM
- IC50 (factor Xa): 20 nM
